Data from ChEMBL document CHEMBL1141066, “Acetylenic TACE inhibitors. Part 2: SAR of six-membered cyclic sulfonamide hydroxamates” (Bioorg Med Chem Lett, 2005).

Tests used:
Collagenase 3 = Collagenase 3 (Homo sapiens, UniProt P45452); experiment: Inhibitory activity against matrix metallopeptidase 13
[1] = biological target: Disintegrin and metalloproteinase domain-containing protein 17 (Homo sapiens, UniProt P78536); experiment: Inhibitory activity against TACE[ADAM metallopeptidase domain 17] in isolated enzyme assay
Interstitial collagenase = biological target: T1, Interstitial collagenase (Homo sapiens, UniProt P03956); experiment: Inhibitory activity against matrix metallopeptidase 1
T1 sequence (P03956 whole entry): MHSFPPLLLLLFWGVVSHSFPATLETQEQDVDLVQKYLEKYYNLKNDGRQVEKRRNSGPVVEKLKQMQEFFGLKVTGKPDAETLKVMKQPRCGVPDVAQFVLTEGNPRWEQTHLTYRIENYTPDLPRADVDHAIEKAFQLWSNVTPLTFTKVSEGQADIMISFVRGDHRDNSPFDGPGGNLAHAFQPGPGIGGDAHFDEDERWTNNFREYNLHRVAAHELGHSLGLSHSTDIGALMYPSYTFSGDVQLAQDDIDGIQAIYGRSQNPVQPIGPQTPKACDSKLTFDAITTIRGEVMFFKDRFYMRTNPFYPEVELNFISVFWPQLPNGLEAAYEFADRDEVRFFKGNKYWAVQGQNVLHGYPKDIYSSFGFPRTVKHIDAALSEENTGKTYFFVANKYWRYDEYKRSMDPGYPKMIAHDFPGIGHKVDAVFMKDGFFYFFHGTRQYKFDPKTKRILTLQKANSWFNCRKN

THP-1 = experiment: Percentage inhibition of TNF production in LPS-stimulated THP-1 cells; format: functional, Homo sapiens

Sequence of Disintegrin and metalloproteinase domain-containing protein 17 (P78536 whole entry, the tested form may be a part): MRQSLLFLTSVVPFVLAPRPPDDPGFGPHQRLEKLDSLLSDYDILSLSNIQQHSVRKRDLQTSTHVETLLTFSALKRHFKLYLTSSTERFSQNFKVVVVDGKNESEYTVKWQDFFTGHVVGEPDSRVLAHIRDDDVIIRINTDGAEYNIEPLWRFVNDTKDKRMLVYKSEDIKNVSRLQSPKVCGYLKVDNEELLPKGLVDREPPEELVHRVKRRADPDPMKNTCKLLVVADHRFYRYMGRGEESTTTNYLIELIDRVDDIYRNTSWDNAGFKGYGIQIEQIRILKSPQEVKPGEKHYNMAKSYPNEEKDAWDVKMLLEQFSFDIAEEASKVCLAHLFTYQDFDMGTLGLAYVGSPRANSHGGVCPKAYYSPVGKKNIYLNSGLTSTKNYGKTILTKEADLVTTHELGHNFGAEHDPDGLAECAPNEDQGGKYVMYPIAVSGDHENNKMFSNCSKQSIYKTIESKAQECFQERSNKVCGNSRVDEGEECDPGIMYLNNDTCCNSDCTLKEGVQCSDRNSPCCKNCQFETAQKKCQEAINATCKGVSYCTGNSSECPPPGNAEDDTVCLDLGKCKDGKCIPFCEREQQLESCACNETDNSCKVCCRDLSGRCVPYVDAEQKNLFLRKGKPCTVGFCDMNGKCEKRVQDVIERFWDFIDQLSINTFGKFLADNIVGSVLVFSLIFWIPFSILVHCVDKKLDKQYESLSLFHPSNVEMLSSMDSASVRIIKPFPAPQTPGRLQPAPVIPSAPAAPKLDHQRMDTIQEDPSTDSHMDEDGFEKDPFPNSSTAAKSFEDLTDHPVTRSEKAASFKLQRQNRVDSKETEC

Row | Structure (SMILES) | IC50 (Collagenase 3) | IC50 [1] | other results
1 | CC#CCOc1ccc(S(=O)(=O)N2CCN(S(C)(=O)=O)CC2C(=O)NO)cc1 (configuration not stated) | 6 nM | – | –
2 | CC#CCOc1ccc(S(=O)(=O)N2CCOCC2C(=O)NO)cc1 (configuration not stated) | – | 5 nM | –
3 | CC#CCOc1ccc(S(=O)(=O)N2CCSCC2C(=O)NO)cc1 (configuration not stated) | – | 3 nM | –
4 | CC#CCOc1ccc(S(=O)(=O)N2CCN(C(=O)OC)CC2C(=O)NO)cc1 (configuration not stated) | 9 nM | – | –
5 | CC#CCOc1ccc(S(=O)(=O)N2CCSC(C)(C)C2C(=O)NO)cc1 (configuration not stated) | – | – | IC50 (Interstitial collagenase): 7 nM
6 | CC#CCOc1ccc(S(=O)(=O)N2CCNCC2C(=O)NO)cc1 (configuration not stated) | 8 nM | – | Inhibition (THP-1): 71%
